For one data set, the system named is VRE E155. Description: Resistance development serial passage assay. The data set is classed as cell-based, Enterococcus faecium. Particulars: VanA-type VRE strain serially passaged over 30 days in sub-lethal antibiotic concentrations. How it is done:
(§1) FIG. 3 illustrates the results obtained when selected compounds were assessed using a resistance development serial passage assay. A) Daily fold-increase of MIC compared to initial MIC against MRSA USA 300 grown in sub-lethal concentrations of daptomycin, compound 5 or compound 16 over 30 days. B). Daily fold-increase of MIC compared to initial MIC against VRE E155 grown in sub-lethal concentrations of daptomycin, compound 5 or compound 16 over 30 days.
(§2) From glycerol stocks, bacterial strains were cultured on blood agar plates and incubated overnight at 37° C. A single colony was grown to exponential phase (OD600=0.5) in TSB+0.002% p80 and diluted 1:100 in fresh media. In polypropylene 96-well microtiter plates, antibiotics were added in biological triplicates and serial diluted 2-fold by transfer and mixing from one well to the next to achieve a final volume of 50 μL per well. An equal volume of bacterial suspension was added to the wells and plates were incubated overnight at 37° C. […] This procedure was repeated for 30 days and the MIC was recorded daily. Cultures containing daptomycin were supplemented with 50 mg L^−1 CaCl2 and 10 mg L^−1 MgSO4. The experiment was performed in biological replicates and for each replicate the MIC was determined from the median of a minimum of triplicates.

For the next data set, the system named is MRSA USA 300. The data set can be described thus: Resistance development serial passage assay. The data set is classed as cell-based, Staphylococcus aureus. Particulars: MRSA serially passaged over 30 days in sub-lethal antibiotic concentrations. How it is done: as §1, §2
The subject of data set [1] is MRSA USA300 strain NRS384. The data set can be described thus: Efficacy, neutropenic mouse thigh infection. The data set is classed as in vivo, Staphylococcus aureus (in CD1 mice). Particulars: neutropenic mice, individual thighs, 23 h post treatment. How it is done:
(§3) Mouse studies were performed using pathogen-free CD1 mice (ICR), a well characterized outbred murine strain (supplied by Charles River, Margate UK). All mice were male and weighed 11-15 gram upon arrival. and were allowed to acclimatize for at least 7 days prior to study initiation. Mice were individually housed in sterilized ventilated cages supplied with HEPA filtered sterile air and aspen chip bedding (changed a minimum of once a week). Food and water was available ad libitum. The room temperature was 22° C. 1° C., with a 60% relative humidity and a maximum background noise of 56 dB. Mice were exposed to a 12 h light/dark cycle.
Mice were made neutropenic by a subcutaneous injection of 150 mg kg^−1 and 100 mg kg^−1 cyclophosphamide 4 days and 1 day before infection respectively. Mice were infected in both thighs with MRSA USA300 strain NRS384 (1.47×10^6 CFU mL-1, 7.33×10^4 CFU per thigh) intramuscularly under temporary anesthesia. […] Pretreatment group was euthanized one hour after infection and the other treatment groups were euthanized […]. Weighted thighs were homogenized and cultured on MSA agar at 37° C. for 18-24 h followed by colony counting. Each group consisted of n=6 mice with both thighs infected (n=12 thighs per treatment group) and each thigh was treated as a separate sample. Data analysis was done with StatsDirect software v. 3.2.8 using non-parametric statistical models (Kruskal-Wallis using Conover-Inman to make all pairwise comparisons between groups).
Colony forming units in neutropenic mice infected in each thigh with MRSA followed 1 h later by the first subcutaneous dose of antibiotic at concentrations indicated and subsequently the same dose at indicated intervals, with sacrifice and bacterial load determination in homogenized thighs at 23 h post treatment (24 h post infection). […] Data are mean±SEM (n=12, six mice per group, two thighs per mouse).

Data set [2] is described as follows: Tolerability in naïve mice. The note with it: 100 mg/kg (SC), two mice. The data set is classed as in vivo. The method, then:
as §3
Tolerability of compound 5 was assessed at 100 mg kg^−1 subcutaneous injection (in 10% DMSO in water for injection) in naïve mice (n=2) that were not immunosuppressed or infected.

A further data set can be described thus: PK in naïve mice. The data set is classed as in vivo. The note with it: mouse, 3 mg kg^−1 subcutaneous; for Cmax: read-out: C0/Cmax. How it is done:
as §3
Test article 5 was administered at 3 mg kg^−1 subcutaneously in naïve mice (n=3) that were not immunosuppressed or infected. Whole blood was collected from the tail vein at 5 min, 15 min, 30 min, 1 h, 2 h, 4 h and 8 h. The last sample was taken as a terminal cardiac puncture.

The subject of a further data set is E. faecium E155. Particulars: Enterococcus faecium E155, strain description; cited from earlier work.

In brackets after ≈: the same amount, converted by molar mass. Several values for one entry are separate records, joined by “and”; a condition that tells them apart may be missing. Identical values can stand only once. Like-named read-outs stand apart in the source and are kept apart here.

On to `CCCCCCCNC(N)=Nc1ccc(CN[C@@]2(C)C[C@H](O[C@H]3[C@H](Oc4c5cc6cc4Oc4ccc(cc4Cl)[C@@H](O)[C@@H](NC(=O)[C@@H](CC(C)C)NC)C(=O)N[C@@H](CC(N)=O)C(=O)N[C@H]6C(=O)N[C@H]4C(=O)N[C@H](C(=O)N[C@H](C(=O)O)c6cc(O)cc(O)c6-c6cc4ccc6O)[C@H](O)c4ccc(c(Cl)c4)O5)O[C@H](CO)[C@@H](O)[C@@H]3O)O[C@@H](C)[C@H]2O)cc1` [Compound 5], for which the “resistance induction, fold-increase of MIC compared to initial MIC” value in the data set on VRE E155 was “low levels of resistance induction”. Moreover, the “resistance induction, fold-increase of MIC compared to initial MIC” value in the data set with MRSA USA 300 was “did not induce resistance”. The Thigh burden in data set [1] (3 mg kg^−1 q6h subcutaneous) is 113 CFU g^−1 (2×) and 368 CFU g^−1 and 456 CFU g^−1 and 9139 CFU g^−1 and 666 CFU g^−1 and 350 CFU g^−1 and 587 CFU g^−1 and 75 CFU g^−1 and 42132 CFU g^−1 and 7735 CFU g^−1 and 3885 CFU g^−1. Moreover, the Thigh burden in data set [1] (10 mg kg^−1 q6h subcutaneous) is 368 CFU g^−1 and 35 CFU g^−1 and 77 CFU g^−1 and 96 CFU g^−1 and 76 CFU g^−1 and 40 CFU g^−1 and BLD (2×) and 158 CFU g^−1 and 7984 CFU g^−1 and 81 CFU g^−1 and 34 CFU g^−1. In data set [2], the “adverse effects and gross morphology” value was “No adverse effects and normal gross morphology”; the tolerability result is “well tolerated”. In the data set “PK in naïve mice” (Mean/Median (n=3)), the AUC0-t came to 3.134 µM·h, the “AUC % Extrapolation to infinity” value is 1.9%, the C0/Cmax came out at 1813 ng/mL and the CL/CL_F is 9.30 mL/min/kg. In “PK in naïve mice” (Mean/Median (n=3)), the Clast was found to be 54.6 ng/mL, the t1/2 is recorded as 1.22 h, the tlast is recorded as 8.00 h and the tmax turned out to be 1.00 h. In the data set “PK in naïve mice” (Mean/Median (n=3)), the Cmax was 1070 nM. In the data set “PK in naïve mice” (individual samples 1-3), the AUC0-t was 3.238 µM·h and 3.368 µM·h and 2.797 µM·h; the “AUC % Extrapolation to infinity” value was 3.1% and 0.9% and 1.6%; the AUCinf was 5664 ng hr mL^−1 and 5759 ng hr mL^−1 and 4814 ng hr mL^−1 and 3342 nM hr and 3398 nM hr and 2841 nM hr; the C0/Cmax was 1989 ng/mL and 1903 ng/mL and 1546 ng/mL. In “PK in naïve mice” (individual samples 1-3), the CL/CL_F is 9 mL min^−1 kg^−1 (2×) and 10 mL min^−1 kg^−1; the Clast was 85.3 ng/mL and 34.4 ng/mL and 44.2 ng/mL; the t1/2 was 1.43 h and 1.05 h and 1.17 h; the tlast was 8.00 h. In the data set “PK in naïve mice” (individual samples 1-3), the tmax is 1.00 h (2×) and 2.00 h; the Cmax is 1170 nM and 1120 nM and 912 nM.
`CN[C@H](CC(C)C)C(=O)N[C@H]1C(=O)N[C@@H](CC(N)=O)C(=O)N[C@H]2C(=O)N[C@H]3C(=O)N[C@H](C(=O)N[C@H](C(=O)O)c4cc(O)cc(O)c4-c4cc3ccc4O)[C@H](O)c3ccc(c(Cl)c3)Oc3cc2cc(c3O[C@@H]2O[C@H](CO)[C@@H](O)[C@H](O)[C@H]2O[C@H]2C[C@](C)(N)[C@H](O)[C@H](C)O2)Oc2ccc(cc2Cl)[C@H]1O` [Vancomycin, reference compound]: in the data set with E. faecium E155, the MIC vancomycin (strain description) was 1020 µg/mL (≈ 707 µM). Moreover, the Thigh burden in data set [1] (25 mg kg^−1 q12h subcutaneous) is 2023 CFU g^−1 and 1148 CFU g^−1 and 142564 CFU g^−1 and 283390 CFU g^−1 and 1204 CFU g^−1 and 310 CFU g^−1 and BLD and 6736 CFU g^−1 and 106 CFU g^−1 and 825 CFU g^−1 and 1030 CFU g^−1.

These data come from patent publication US20230174584A1, “Antibiotic Compounds” (priority 2019, published 2023).
